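Tested at 5 concentrations; 48 h exposure; 96-well plates; endpoints linearly interpolated, else capped at highest concentration. Definition used: TGI = concentration required for complete inhibition of growth.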
How the values were obtained:
Experiment in all cases: NCI anticancer screen, dose series, 48 h
UO-31 renal = tested on: UO-31 renal
HCT-116 colon = tested on: HCT-116 colon
OVCAR-8 ovarian = tested on: OVCAR-8 ovarian
DLD-1 colon = tested on: DLD-1 colon
786-0 renal = tested on: 786-0 renal
SK-MEL-5 melanoma = tested on: SK-MEL-5 melanoma
SW-620 colon = tested on: SW-620 colon
SF-539 CNS = tested on: SF-539 CNS
LXFL 529 NSCLC = tested on: LXFL 529 NSCLC
NCI-H226 lung = tested on: NCI-H226 lung
A549 NSCLC = tested on: A549 NSCLC
KM20L2 colon = tested on: KM20L2 colon
HT29 colon = tested on: HT29 colon
SK-MEL-2 melanoma = tested on: SK-MEL-2 melanoma
SK-MEL-28 melanoma = tested on: SK-MEL-28 melanoma
OVCAR-5 ovarian = tested on: OVCAR-5 ovarian
HL-60(TB) leukemia = tested on: HL-60(TB) leukemia
XF 498 CNS = tested on: XF 498 CNS
K-562 leukemia = tested on: K-562 leukemia
EKVX NSCLC = tested on: EKVX NSCLC
NCI-H522 lung = tested on: NCI-H522 lung
MOLT-4 leukemia = tested on: MOLT-4 leukemia
DMS 114 small cell lung = tested on: DMS 114 small cell lung
RXF-631 renal = tested on: RXF-631 renal
U251 CNS = tested on: U251 CNS
NCI-H23 lung = tested on: NCI-H23 lung
HOP-62 NSCLC = tested on: HOP-62 NSCLC
HCC-2998 colon = tested on: HCC-2998 colon
NCI-H460 lung = tested on: NCI-H460 lung
HOP-92 NSCLC = tested on: HOP-92 NSCLC
RXF 393 renal = tested on: RXF 393 renal
TK-10 renal = tested on: TK-10 renal
UACC-62 melanoma = tested on: UACC-62 melanoma
SNB-75 CNS = tested on: SNB-75 CNS
UACC-257 melanoma = tested on: UACC-257 melanoma
SF-295 CNS = tested on: SF-295 CNS
M19-MEL melanoma = tested on: M19-MEL melanoma
SF-268 CNS = tested on: SF-268 CNS
COLO 205 colon = tested on: COLO 205 colon
SK-OV-3 ovarian = tested on: SK-OV-3 ovarian
CCRF-CEM leukemia = tested on: CCRF-CEM leukemia
OVCAR-3 ovarian = tested on: OVCAR-3 ovarian
LOX IMVI melanoma = tested on: LOX IMVI melanoma
ACHN renal = tested on: ACHN renal
MALME-3M melanoma = tested on: MALME-3M melanoma
IGROV1 ovarian = tested on: IGROV1 ovarian
M14 melanoma = tested on: M14 melanoma
RPMI-8226 leukemia = tested on: RPMI-8226 leukemia
SNB-78 CNS = tested on: SNB-78 CNS
KM12 colon = tested on: KM12 colon
SN12C renal = tested on: SN12C renal
SR leukemia = tested on: SR leukemia
DMS 273 small cell lung = tested on: DMS 273 small cell lung
OVCAR-4 ovarian = tested on: OVCAR-4 ovarian
SNB-19 CNS = tested on: SNB-19 CNS
CAKI-1 renal = tested on: CAKI-1 renal

Measured: TGI

C/C(CC(=O)Nc1ccccc1[N+](=O)[O-])=N\NC(N)=O
> 100 µM: UO-31 renal | HCT-116 colon | OVCAR-8 ovarian | DLD-1 colon | 786-0 renal | SK-MEL-5 melanoma | SW-620 colon | SF-539 CNS | LXFL 529 NSCLC | NCI-H226 lung | A549 NSCLC | KM20L2 colon | HT29 colon | SK-MEL-2 melanoma | SK-MEL-28 melanoma | OVCAR-5 ovarian | HL-60(TB) leukemia | XF 498 CNS | K-562 leukemia | EKVX NSCLC | NCI-H522 lung | MOLT-4 leukemia | DMS 114 small cell lung | RXF-631 renal | U251 CNS | NCI-H23 lung | HOP-62 NSCLC | HCC-2998 colon | NCI-H460 lung | HOP-92 NSCLC | RXF 393 renal | TK-10 renal | UACC-62 melanoma | SNB-75 CNS | UACC-257 melanoma | SF-295 CNS | M19-MEL melanoma | SF-268 CNS | COLO 205 colon | SK-OV-3 ovarian | CCRF-CEM leukemia | OVCAR-3 ovarian | LOX IMVI melanoma | ACHN renal | MALME-3M melanoma | IGROV1 ovarian | M14 melanoma | RPMI-8226 leukemia | SNB-78 CNS | KM12 colon

CN(O)C(=O)c1ccccc1
> 100 µM: UO-31 renal | HCT-116 colon | OVCAR-8 ovarian | DLD-1 colon | 786-0 renal | SK-MEL-5 melanoma | SN12C renal | SW-620 colon | SF-539 CNS | LXFL 529 NSCLC | NCI-H226 lung | A549 NSCLC | KM20L2 colon | SR leukemia | HT29 colon | DMS 273 small cell lung | SK-MEL-28 melanoma | OVCAR-5 ovarian | HL-60(TB) leukemia | XF 498 CNS | K-562 leukemia | NCI-H522 lung | MOLT-4 leukemia | DMS 114 small cell lung | OVCAR-4 ovarian | RXF-631 renal | U251 CNS | NCI-H23 lung | HOP-62 NSCLC | HCC-2998 colon | NCI-H460 lung | HOP-92 NSCLC | RXF 393 renal | TK-10 renal | UACC-62 melanoma | SNB-75 CNS | UACC-257 melanoma | SF-295 CNS | M19-MEL melanoma | SF-268 CNS | COLO 205 colon | SNB-19 CNS | CAKI-1 renal | SK-OV-3 ovarian | CCRF-CEM leukemia | OVCAR-3 ovarian | LOX IMVI melanoma | ACHN renal | MALME-3M melanoma | IGROV1 ovarian | M14 melanoma | RPMI-8226 leukemia | KM12 colon

Reference: PubChem BioAssay (NCI)
